In brackets after ≈: the same amount, converted by molar mass.
How the values were obtained:
[1] = Stability of dutasteride depending on oil type (degradation products); type: physicochemical
Protocol: In Test Example 2, in order to identify the stability of dutasteride in oil, the oil and dutasteride are mixed at a ratio of about 10 to 1, and then a stability test is carried out under an accelerated and stress condition, and a percentage of generated unknown degradation products with respect to the active ingredient is calculated to confirm whether degradation products are generated or not.
In order to identify the stability of dutasteride in mono- and di-glyceride of caprylic/capric acid used as an oil phase of AVODART®, an existing commercially-available formulation, the stability of dutasteride was compared under the stress condition (50° C., 95% RH) and the accelerated condition (40° C., 75% RH). In the comparison test, a sample prepared by dissolving 1.0 mg of dutasteride in 10.0 mg of propylene glycol monocaprylate and stored in a transparent vial and a sample prepared by dissolving 1.0 mg of dutasteride in 10.0 mg of mono- and di-glyceride of caprylic/capric acid and stored in a transparent vial were used.

[2] = Evaluation of oil solubility of dutasteride; type: physicochemical; settings: for solubility at 24 h: oil or lipid, thermodynamic from solid
Protocol: In order to measure the solubility of dutasteride in oil, the solubility of dutasteride in glycerol tricaprylate, glycerol tricaprylate/caprate, glycerol tricaprylate/caprate/linoleate, propylene glycol dicaprylocaprate, propylene glycol dicaprate, propylene glycol dicaprylate and propylene glycol monolaurate was measured. In a 10 mL vial, a magnetic bar was placed. After 3 mL of the oil was added thereto, approximately 100 mg of dutasteride was added thereto while stirring under a room temperature (25° C.) condition, and the resultant mixture was stirred at 500 rpm or higher. After stirring for 24 hours, 1 mL of the resultant mixture was taken and separated using a centrifuge, and only a supernatant was taken to quantify an amount of dutasteride dissolved in the oil using liquid chromatography.

Structure (SMILES): C[C@]12C=CC(=O)N[C@@H]1CC[C@@H]1[C@@H]2CC[C@]2(C)[C@@H](C(=O)Nc3cc(C(F)(F)F)ccc3C(F)(F)F)CC[C@@H]12 [dutasteride, 17β-N-(2,5-bis(trifluoromethyl))phenylcarbamoyl-4-aza-5α-androst-1-en-3-one]
- percentage of degradation products with respect to dutasteride ([1]; in mono- and di-glyceride of caprylic/capric acid, stress condition (50° C., 95% RH), Week 1): None
- percentage of degradation products with respect to dutasteride ([1]; in mono- and di-glyceride of caprylic/capric acid, stress condition (50° C., 95% RH), Week 2): None
- percentage of degradation products with respect to dutasteride ([1]; in mono- and di-glyceride of caprylic/capric acid, stress condition (50° C., 95% RH), Week 3): None
- percentage of degradation products with respect to dutasteride ([1]; in propylene glycol monolaurate, accelerated condition (40° C., 75% RH), Week 4): not generated and None
- percentage of degradation products with respect to dutasteride ([1]; in propylene glycol monolaurate, stress condition (50° C., 95% RH), Week 1): None
- percentage of degradation products with respect to dutasteride ([1]; in propylene glycol monolaurate, stress condition (50° C., 95% RH), Week 2): None
- percentage of degradation products with respect to dutasteride ([1]; in propylene glycol monolaurate, stress condition (50° C., 95% RH), Week 3): None
- solubility at 24 h ([2]; glycerol tricaprylate (oil), in glycerol tricaprylate, 25° C., stirring 24 hours): 840 µg/mL (≈ 1590 µM)
- solubility at 24 h ([2]; glycerol tricaprylate/caprate/linoleate (oil), in glycerol tricaprylate/caprate/linoleate, 25° C., stirring 24 hours): 220 µg/mL (≈ 416 µM)
- Solubility ([2]; in glycerol tricaprylate/caprate, 25° C., stirring 24 hours): 810 µg/mL (≈ 1530 µM)
- solubility at 24 h ([2]; propylene glycol dicaprylocaprate (oil), in propylene glycol dicaprylroccaprate, 25° C., stirring 24 hours): 970 µg/mL (≈ 1840 µM)
- higher solubility in propylene glycol monolaurate compared to other tested oils ([2]; propylene glycol monolaurate vs other tested oils): ≥ 10 times
